Assay results from patent US20120128728A1 (NOVARTIS PHARMA AG, priority 2005, published 2012).

Assays:
fungus = test: Minimum inhibitory concentration (MIC)
Procedure: The MIC may be expressed as a particular concentration value or as a range of concentrations. […] As used herein, unless otherwise specified, the MIC value shall be taken to be the particular value when a particular MIC value is determined and shall be taken to be a midrange value when a range of MIC values is determined. MIC determinations may be made according to processes known in the art.

[1] = Toxicity of two dry powders in rats with daily or weekly dosing (Example 16); assay type: in vivo
Procedure: The following investigations were performed: clinical observations, body weight, respiratory measurements, hematology, clinical chemistry, histopathology, toxicokinetics, and bioanalytical chemistry.

in vivo [2] = test: in vivo; set-up: species or system dogs; conditions: both sexes, dog
Excerpt: On Study Days 1 and 14, blood samples for toxicokinetic analysis were obtained from designated animals in the vehicle and high-dose groups before exposure and 2, 4, 8, 12, and 24 hr after exposure, and daily during the 14-day recovery period. Main-study animals were euthanized and necropsied on day 15, recovery animals on day 29, during which the right anterior lobe of each animal was obtained for toxicokinetic analysis.

[3] = Toxicity of two dry powders in beagle dogs, once weekly inhalation (Example 17); assay type: in vivo
Procedure: The animals were dosed using a close fitting face mask (fitted with a mouth tube) system for 30 min per day according to Table 15, above.

Aspergillus fumigatus = test system: Aspergillus fumigatus
Procedure: This study had three groups, with 10 rabbits each. Group 1 received the immunosuppressive regimen of intravenous cytarabine and methyl prednisolone and a sham saline inoculation. Group 2 received the immunosuppressive regimen and 5×10^7 conidia of A. fumigatus. […] The immunosuppressive agents were administered by intravenous injection. Antibiotics to prevent bacterial infections were administered by intravenous injection or in the drinking water.
Evaluations performed in this study included mortality and morbidity, daily clinical observations, body weights, clinical pathology (hematology and clinical chemistry), gross necropsy, lung weight, enumeration of visible lung infarctions, fungal colony forming unit (CFU) measurements in BAL, blood, and lung tissue samples, and histopathological evaluation of lung tissue.
There were 3 study groups with 10 rabbits in each group in this experiment. Group 1 received the immunosuppressive regimen of intravenous cytarabine and methyl prednisolone and a sham saline inoculation. Group 2 received the immunosuppressive regimen and 5×10^7 conidia of A. fumigatus.
New Zealand White SPF rabbits that were dual catheterized with vascular access ports (VAPs) and weighing between 2.5 to 4.0 kg at study initiation were used. The rabbits were randomly assigned to treatment groups using a computerized body weight stratification procedure.
In this regard, powder from a blister pack was actuated from the inhaler into a chamber. The small animal ventilator pushed the dispersed powder into an endotracheal tube. The delivery efficiency to the animal was determined by measuring the gravimetric mass of the powder collected on a filter connected to the end of the endotracheal tube. The mass collected on the filter was normalized to the actual blister pack fill weight. The delivery efficiency was used to calculate the estimated dose (mg) for the in vivo experiments.

in vivo [4] = test: in vivo; set-up: species or system rabbits; conditions: rabbit
Procedure: This Example describes results obtained in the plasma and lung tissue only.
The lot number of the formulation was N020042. The test powder was hand-filled into blister packs and contact sealed at 340° F. for 1.0 second, with an approximate fill weight of approximately 1.5 mg per blister pack.
(§1) The test inhalation was administered in a single inhalation exposure.
The study included two groups each comprised of 48 rabbits. […] Four animals were sacrificed at each of the following time points after dosing: 0.16, 0.3, 1, 1.3, 2, 3, 4, 5, 14, 21, 28, and 45 days. Plasma and lung tissue were collected and analyzed for amphotericin B content using LC/MS-MS. Lower limits of quantitation (LLQ) of the assays were 5 ng/mL in plasma and 20 ng/g in lung tissue.

[5] = Fourteen-day inhalation toxicity/toxicokinetic study in rats; assay type: in vivo; conditions: both sexes, rat, lung tissue, inhaled, recovery period, read-out: lung tissue elimination half-life (t1/2) (converted)
Procedure: Recovery animals were retained for a 14-day postdose recovery period. On study days 1 and 14, blood samples for toxicokinetic analysis were obtained from designated animals in the vehicle only and high-dose (25 mg/kg) groups at predose, 2 hr postdose, and 4 hr postdose. Toxicokinetic blood samples were also obtained during the 14-day recovery period on recovery Days 7 and 14 for males, and on recovery Day 14 only for females due to their lower body weight.
All study animals were subjected to a detailed necropsy on completion of the 14-day treatment period (Day 15) or completion of the 14-day recovery period (Day 29). During necropsy, lung tissue samples for toxicokinetic analysis were obtained from each animal.

[6] = One month inhalation toxicity study in rats
Procedure: (§2) The animals were dosed using a snout only exposure technique for about 60 min on 5 occasions at weekly intervals. Recovery animals were retained for an approximate one month recovery period.
(§3) The following investigations were performed: clinical observations, body weight, food consumption, ophthalmology, hematology, clinical chemistry, urinalysis, histopathology, and toxicokinetics.

[7] = Dry powder toxicology study in rats with daily or weekly dosing (Example 15); assay type: in vivo; conditions: dosages up to 30.60 mg/kg/dose amphotericin B alone
Procedure: The information obtained was used to select dose levels and/or dose regimens for subsequent toxicity studies.
The following investigations were performed: clinical observations, body weight, hematology, clinical chemistry, organ weight, histopathology, toxicokinetics, and bioanalytical chemistry.

[8] = test system: Aspergillus fumigatus, NIH strain 4215; test: Efficacy of inhaled amphotericin B for prophylaxis in rabbits (Example 13); assay type: in vivo, New Zealand White SPF rabbits; conditions: for survival rate: day 14
Procedure: The test powder was hand-filled into blister packs and contact sealed at 340° F. for 1.0 second, with an approximate fill weight of approximately 1.5 mg per blister pack.
as §1
Aspergillus fumigatus, NIH strain 4215, was obtained from American Type Culture Collection (ATCC). Inoculum of A. fumigatus was prepared on Sabouraud dextrose flasks. Conidia were harvested with a solution of 0.025% Tween 20 in 0.9% sodium chloride, transferred to a conical tube, washed, and counted. The concentration was adjusted with the same solution to achieve 5×10^7 conidia in 300 μL. Animals in challenged groups were inoculated with the same volume. Inoculation was performed on anesthetized rabbits. Rabbits were intubated using an endotracheal tube and the inoculum was then administered intratracheally with a tuberculin syringe attached to a catheter introduced through the endotracheal tube.
The study included 6 groups each comprised of 10 rabbits. These groups are described in Table 6, below. All groups were immunosuppressed and treated with antibiotics to prevent bacterial infections. The immunosuppression and antibiotic cover regimen is detailed in Table 7, below.

[9] = rat, in vivo
Procedure: as §2, §3

[10] = Group 3: 1.5 mg/kg inhaled 1 day before 5×10^7 conidia
[11] = Group 3: 1.5 mg/kg inhaled at day −12
[12] = Group 4: 0.15 mg/kg inhaled at day −1
[13] = Group 5: 0.5 mg/kg inhaled at day −1
[14] = Group 6: 1.5 mg/kg inhaled at Day −1

With C[C@@H]1[C@H](O)[C@@H](C)/C=C/C=C/C=C/C=C/C=C/C=C/C=C/[C@H](O[C@@H]2O[C@H](C)[C@@H](O)[C@H](N)[C@@H]2O)C[C@@H]2O[C@](O)(C[C@@H](O)C[C@@H](O)[C@H](O)CC[C@@H](O)C[C@@H](O)CC(=O)O[C@H]1C)C[C@H](O)[C@H]2C(=O)O [amphotericin B] the “midrange MIC value” (fungus) was “about 2.25 μg/g”, the clinical signs ([1]; dosages up to 14.80 mg/kg amphotericin B alone) was “clinical signs indicative of respiratory distress” and the necropsy findings ([1]; rats, both powders) was “no notable necropsy findings”. For the same compound, the half-life (in vivo [2]) was 18.8 days, the “changes in body weight, hematology, clinical chemistry, food consumption, respiratory measurement” value [3] was “no significant changes” and the clinical signs ([3]; all dose groups including vehicle control) was “salivation”. For the same compound, the “necropsy or histopathology findings attributable to administration” value ([3]; doses up to 8.2 (3.2) mg/kg weekly) was “no necropsy or histopathology findings”, the “Kaplan-Meier survival compared with Group 2 (A. fumigatus only)” value (Aspergillus fumigatus; Group 3) was “significant (p<0.05) increase” and the “animals observed wheezing, gasping, or having rales” value (Aspergillus fumigatus; Group 3) was “five”. The “animals with more than 20 grossly visible lung infarctions” value (Aspergillus fumigatus; Group 3, gross necropsy) was 20%, the “animals with visible lung infarction” value (Aspergillus fumigatus; Group 3, gross necropsy) was 80% and the “animals with mycotic hyphae present in lung” value (Aspergillus fumigatus; Group 3, histopathology) was 50%. The average survival time (Aspergillus fumigatus; [10]) was 13 days, the “median day of death or sacrifice” value (Aspergillus fumigatus; [10]) was 14 days and the “animals having 1 or more tissues positive for fungus” value (Aspergillus fumigatus; Group 3, BAL, blood, lung tissue culture, 9 animals) was 44%. The “effect against A. fumigatus induced mortality” value (Aspergillus fumigatus; conclusion) was “prophylactic effect”, the “animals surviving beyond nine days” value (Aspergillus fumigatus; immunosuppressed, exposed, treated rabbits (FIG. 20)) was 100% and the Tmax (in vivo [4]; 0.25 mg/kg) was 1.33 days. The “group mean lung Cmax” value (in vivo [4]; 0.25 mg/kg) was 8.0 µg/g, the half-life (in vivo [4]; 0.25 mg/kg) was 12.2 days and the Tmax (in vivo [4]; 1.5 mg/kg) was 1 days. The “group mean lung Cmax” value (in vivo [4]; 1.5 mg/kg) was 46.6 µg/g, the half-life (in vivo [4]; 1.5 mg/kg) was 10.6 days and the half-life ([5]; 1.1 mg/kg dose level) was 22 days. For the same compound, the half-life ([5]; 12.4 mg/kg dose level) was 34 days, the “mortalities during the study” value ([6]; 198 M and 198 F rats, one death pretrial) was 181 and the “animals with pneumonia/pleuritis, collapse or alveolar inflammation” value ([6]; Groups 3 to 6, Main Study) was 17/110. For the same compound, the “time to maximum plasma concentration after cessation of dosing” value ([6]; rats, toxicokinetics) was no more than 4 h, the premature demise [7] was 3 animals and the median survival time [8, 11] was 10 days. It also gave a survival rate [8, 11] of 0%, a median survival time [8, 12] of 9 days and a survival rate [8, 12] of 10%. The median survival time [8, 13] was 10.5 days, the survival rate [8, 13] was 10% and the median survival time [8, 14] was 10 days. The survival rate [8, 14] was 10%, the “Logrank pairwise comparison of Groups 3-6 with untreated Group 2” value ([8]; all doses and treatment days) was “significant (P<0.001) protection” and the “effects on body weight, food consumption, ophthalmology, hematology, clinical chemistry, or organ weights” value [9] was “no adverse effects”.
